Test results taken from article PMC8949075, “Evaluation of Two Novel Hydantoin Derivatives Using Reconstructed Human Skin Model Episkin^TM: Perspectives for Application as Potential Sunscreen Agents” (Molecules, 2022).

How the values were obtained:
[1] = Incubation in buffer (pH 7.4) without HLMs (spontaneous hydrolysis control); format: physicochemical; settings: buffer pH = 7.4, no HLMs, 30 min, 37 °C
Experimental: (§1) Supernatant analysis was performed using UHPLC/MS (Waters Corporation, Milford, MA, USA). Two control samples were prepared with each incubation set. The first, a mixture of a test compound and potassium phosphate buffer, and without the addition of HLMs nor the NADPH-regenerating system, was used to exclude the possibility of hydrolysis facilitated by the buffer solution. The second, a mixture of a test compound, potassium phosphate buffer and HLMs, but without the NADPH-regenerating system solution, was designed to evaluate the production of metabolites in the presence of enzymes but the absence of NADPH [14, 82]. The assays were repeated two times. The in vitro half time (t1/2) for JH3 was established from the slope of the linear regression of ln percent parent compound remaining against incubation time. Intrinsic clearance (Clint) was obtained from the equation: Clint = (volume of incubation [µL] (i.e., 250 µL)/protein in the incubation [mg] (i.e., 0.2 mg)) × 0.693/t1/2 [83, 84, 85].

[2] = CHO-K1 cytotoxicity assay (MTT); format: cell-based; settings: Chinese hamster, concentrations ranging from 1 to 10 µM, read-out: viability of cells
Experimental: The Chinese hamster ovary CHO-K1 cell line was obtained from the American Type Culture Collection (ATCC CCL-61). The CHO-K1 cell line was cultured in a humidified incubator at 37 °C with 5% CO2, in F-12K Medium (Kaighn’s Modification of Ham’s F-12 Medium) (ATCC) supplemented with 10% fetal bovine serum (FBS; Gibco, Waltham, MA, USA) and antibiotics (1% streptomycin/penicillin salts mixture, Sigma–Aldrich, Darmstadt, Germany).
The cells were seeded at a density of 6 × 10^3 on 96-well plates. […] Test compounds and 4MBC were dissolved in DMSO (solvent, final concentration 0.1%) and ethanol (co-solvent, final concentration 1%). At the end of the incubation period, 10 µL of MTT reagent was added to each well. After 4 h incubation (37 °C, 5% CO2), the medium was discarded, and the formazan produced in the cells appeared as dark crystals in the bottom of the wells. Next, pure DMSO was added to each well. The optical density data of converted dye was measured at 570 nm (A570) on microplate reader. […] The experiment was conducted two times with three repetitions for each condition.

[3] = In vitro microsomal biotransformation; format: in vitro ADME, human; settings: for t1/2 (in vitro half time): HLMs 0.8 mg/mL; for t1/2 (in vitro half time) / microsomal CLint at 20 µM / half-life at 20 µM: 20 µM, 37 °C; for Biotransformation (main metabolite M, ΔM −28): in the absence or presence of NADPH; for microsomal CLint at 20 µM / half-life at 20 µM: human, liver microsomes, pH 7.4, HLMs 0.8 mg/mL; for microsomal CLint at 20 µM: read-out: Clint (intrinsic clearance); for half-life at 20 µM: read-out: t1/2 (in vitro half time)
Experimental: The microsome incubation procedure was adapted from the previous studies. Reaction mixtures comprising the test compound JH3 or JH10 (20 µM in methanol), human liver microsomes (HLMs; Sigma Aldrich, Darmstadt, Germany) (0.8 mg/mL), and 100 mM potassium phosphate buffer (pH 7.4) were preincubated before the addition of NADPH-regenerating system (NADP, glucose-6-phosphate and glucose-6-phosphate dehydrogenase in potassium phosphate buffer). The NADPH-regenerating system and buffer components were obtained from Sigma-Aldrich (Darmstadt, Germany). Incubation was conducted for different time points (i.e., 5, 15, and 30 min) with temperature set at 37 °C. The reaction was quenched with ice-cold methanol, followed by the addition of internal standard (IS)–PTX (20 µM). The mixture was then centrifuged.
as §1

[4] = parameters: method as in PMID 31238526; settings: 2% (w/w) macrogol formulations; cited from earlier work
[5] = test system: MCF-7 breast cancer model; parameters: method as in PMID 31238526; settings: cited from earlier work
[6] = test system: Episkin^TM reconstructed human epidermis; experiment: Episkin skin irritation test (MTT viability, Il-1α release; OECD 439); settings: for Il-1α release: 26 mg/cm^2 topical, 15 min exposure, 42 h post-incubation; for skin irritation classification: 50% viability cut-off (OECD prediction model)
Excerpt: (§7) The Episkin^TM model (aged 13 days, large/1.07 cm^2 surface area) was provided by Episkin (Lyon, France). The Episkin^TM kit consists of 12 reconstructed epidermis units made of type I collagen matrix, representing the dermis, surfaced with a film of type IV collagen, upon which is laid a stratified and differentiated epidermis derived from human keratinocytes [17]. Upon receipt of the tissues, the culture inserts were removed from the agarose-nutrient solution and transferred into 12-well plates containing 2 mL of the maintenance medium (MM) per well. The MM was provided by the manufacturer. Tissues were then incubated for 24 h at 37 °C in a humidified atmosphere of 5% CO2 before use in the permeation, irritation, or phototoxicity experiments.
(§8) Prior to the irritation experiments, the Episkin^TM inserts were washed with sterile PBS to remove traces of the MM and transferred into new 12-well plates containing 2 mL of fresh MM. […] Sodium dodecyl sulphate (SDS; Sigma-Aldrich, Darmstadt, Germany) (5% in water) and PBS were used as positive and negative controls, respectively. Both controls were applied topically (26 mg/cm^2). Samples were tested in two independent experiments using three tissues for each chemical, positive, or negative control.
(§9) Then, the tissues were placed in new 12-well plates containing 2 mL of the MM per well and incubated for an additional 42 h at 37 °C in a humidified atmosphere of 5% CO2 as post-treatment incubation time. At the end of this period, the culture media of each tissue were collected and stored at −20 °C for Il-1α measurement.
(§10) The cell viability was assessed by a subsequent incubation of the tissues for 3 h with freshly prepared 3-(4,5-dimethylthiazol-2-yl)-2,5-diphenyltetrazolium bromide (MTT; Sigma-Aldrich, Darmstadt, Germany) solution (0.3 mg/mL in assay medium (AM)) in a 12-well plate. Then, a biopsy of the epidermis was done using a puncher (Episkin, Lyon, France), and the precipitated formazan was extracted using 500 µL of acidified isopropanol (Chempur, Piekary Śląskie, Poland) (0.04 N HCl in isopropanol) for 48 h (4 °C). At the end of the extraction period, 200 µL of each sample were transferred to 96-well plates for absorbance measurements at 570 nm (A570) [70, 71, 72, 73]. […] Viability (percent of control) was determined by dividing A570 of experimental wells by A570 of control wells × 100%. The test substance was considered as an irritant when mean tissue viability was equal or less than 50% [16, 17].
(§11) Il-1α measurement was conducted by a classic enzyme-linked immunosorbent assay (ELISA) technique (Cayman Chemical, Ann Arbor, MI, USA). Firstly, 100 µL of the samples were added into a 96-well ready to use microtiter plate (precoated with a monoclonal antibody specific for Il-1α (Il-1α capture antibody). Secondly, 100 µL of an acetylcholinesterase:Fab’ Conjugate (AChE:Fab’) was added to each well. The plate was covered with plastic film and incubated overnight at 4 °C. At the end of the incubation period the contents of each well were removed and rinsed five times with wash buffer. Next, 200 µL of Ellman’s reagent (containing the substrate for AChE) was added to each well, the plate was covered with plastic film and developed in the dark using an orbital shaker. The absorbance of the wells was measured at 410 nm. Il-1α concentrations were then calculated using the standard curve.

[7] = in vitro; settings: human, 26 mg/cm^2
Excerpt: as §7, §8, §9, §10, §11

[8] = test system: Episkin^TM reconstructed human epidermis; experiment: Episkin skin permeation test (finite dose, OECD 428); format: in vitro ADME; settings: for absorbed amount detected in the RF (of the applied dose) / amount remaining on the surface of the Episkin: 24 h exposure, 10 mg/cm^2 finite dose
Experimental: (§2) The MM was provided by the manufacturer.
(§3) The receptor fluid composition was based on the pilot experiments.
(§4) The formulations of the test compounds (JH3 and JH10) and commercial UV filters were applied onto the skin surface in the donor compartment in a net dose of 10 mg/cm^2 (finite dose application) using disposable flexible loops. To quantify the dose of the formulation applied on the top of the Episkin^TM model, the loops were weighed, filled with approximately 11 mg of formulation, and then reweighed. The difference in weight was used as the amount of formulation applied. Commercial UV filters such as BP3, 4MBC, and AVO were used as reference standards. The filters were obtained from Sigma-Aldrich, Darmstadt, Germany.
(§5) The plate with tissues was embedded with parafilm and incubated at specific time points at 32 °C. As the passive diffusion of chemicals (and therefore their skin absorption) is affected by temperature, the diffusion chamber and skin were maintained at a constant temperature close to normal skin temperature of 32 ± 1 °C [19, 23, 30, 32]. At fixed time points (0, 1, 2, 3, 4, 5, 6, and 24 h), aliquots of the receptor fluid (0.5 mL) were collected from the receptor compartment and immediately replaced with fresh fluid. After 24 h the entire receptor fluid was collected, and the skin surface was washed thoroughly with cotton buds impregnated in methanol (5 times). The tissues were removed from the inserts and both the donor and receptor compartments were washed separately with methanol. The samples were stored at −20 °C until chemical analysis.
(§6) All samples were spiked with 25 µL of pentoxifylline (PTX, Sigma-Aldrich, Darmstadt, Germany) (final concentration of 20 µM) used as an internal standard prior to extraction. The samples were analyzed using ultra high-pressure liquid chromatography coupled with mass spectrometry (UHPLC/MS; Waters Corporation, Milford, MA, USA). Quantification was based on peak area and calculated from standard calibration curves of the compound adjusted by the internal standard area. The assay was in agreement with the Organization for Economic Co-operation and Development (OECD) guideline 428 [19].

[9] = as above; format: in vitro ADME, human; settings: human; 24 h exposure, 10 mg/cm^2 finite dose, 2% formulation; read-out: recovery in the epidermis (of the applied dose)
Experimental: as §2, §3, §4, §5, §6

[10] = test system: selected human skin cells; parameters: method as in PMID 31238526; settings: cited from earlier work

## CCOC(=O)CN1C(=O)/C(=C/C=C/c2ccc(OC)cc2)N(CC(=O)OCC)C1=O [JH3, diethyl 2,2′-((Z)-4-((E)-3-(4-methoxyphenyl)allylidene)-2,5-dioxoimidazolidine-1,3-diyl)diacetate]
[1]
  spontaneous hydrolysis in buffer: no signs of spontaneous hydrolysis
[2]
  viability at 24 h: > 75%
[3]
  t1/2 (in vitro half time): 5 - min
  microsomal CLint at 20 µM: > 172 µL/min/mg
  half-life at 20 µM: ~5 min
[3]; HLMs, 15 min time point
  parent compound remaining: Approximately 5%
[3]; HLMs
  Biotransformation (main metabolite M, ΔM −28): - Hydrolysis
[4]
  SPFin vitro (sun protection factor): 1.68 ± 0.04
  UVA PF: 6.83 ± 0.05
  UVA/UVB Ratio: 4.50 ± 0.32
  λc: 391 nm
[5]
  estrogenic activity: no estrogenic activity
[6]
  Il-1α release: no significant increase
  skin irritation classification: non-irritants
[7]
  viability at 15 min: ≥ 50%
[8]; 2% formulation
  absorbed amount detected in the RF (of the applied dose): 1%
  amount remaining on the surface of the Episkin: 95%
[8]; after 24 h exposure
  detectable amount in RF, fold lower than that of JH10: about 28 fold
[8]; sampling 0-6 and 24 h, 2% formulation, 10 mg/cm^2
  detection in the receptor fluid over time: undetectable in the RF in the first six hours
[9]
  recovery at 24 h, 2 % in formulation: 3%
[10]
  cytotoxicity: no cytotoxicity

## CCOC(=O)CN1C(=O)/C(=C/c2ccc(OC)cc2)N(CC(=O)OCC)C1=O [JH10, diethyl 2,2′-((Z)-4-(4-methoxybenzylidene)-2,5-dioxoimidazolidine-1,3-diyl)diacetate]
[1]
  spontaneous hydrolysis in buffer: no signs of spontaneous hydrolysis
[2]
  viability at 24 h: > 75%
[3]
  t1/2 (in vitro half time): <<5 - min
  microsomal CLint at 20 µM: > 172 µL/min/mg
  half-life at 20 µM: ~5 min
[3]; HLMs, 5 min time point
  parent compound detected: less than 0.5%
[3]; HLMs
  Biotransformation (main metabolite M, ΔM −28): - Hydrolysis
[4]
  SPFin vitro (sun protection factor): 3.07 ± 0.04
  UVA PF: 2.59 ± 0.23
  UVA/UVB Ratio: 0.84 ± 0.08
  λc: 366 nm
[5]
  estrogenic activity: no estrogenic activity
[6]
  Il-1α release: no significant increase
  skin irritation classification: non-irritants
[7]
  viability at 15 min: ≥ 50%
[8]; 2% formulation
  absorbed amount detected in the RF (of the applied dose): 48%
  amount remaining on the surface of the Episkin: 45%
[8]; after the first hour of exposure, 2% formulation, 10 mg/cm^2
  amount in the receptor fluid (RF): 1 µg/cm^2
[9]
  recovery at 24 h, 2 % in formulation: 7%
[10]
  cytotoxicity: no cytotoxicity
